Converted amounts (≈) assume the structure as drawn. The source made the active and inactive calls. The calls are words filed in the database; no cut-off is given here.
What was measured:
[1] = Solubility of compound in PBS at pH 7.4 at 300 uM after 24 hrs by HPLC-UV analysis; assay type: physicochemical
Hs 766 = experiment: Antiproliferative activity against human Hs 766 cells assessed as reduction in cell viability at 1 to 5 uM after 72 hrs by MTS assay; assay type: functional, cell-based; details: dose 1-5 µM
PANC-1 [2] = experiment: Antiproliferative activity against human PANC-1 cells assessed as reduction in cell viability after 72 hrs by MTS assay; assay type: functional, cell-based; details: PANC-1, 72 h
LAPC4 [3] = experiment: Antiproliferative activity against human LAPC4 cells assessed as reduction in cell viability after 72 hrs by MTS assay; assay type: functional, cell-based; details: LAPC4, 72 h
LAPC4 [4] = experiment: Antiproliferative activity against human LAPC4 cells assessed as reduction in cell viability at 1 to 5 uM after 72 hrs by MTS assay; assay type: functional, cell-based; details: dose 1-5 µM
OVCAR-3 [5] = experiment: Antiproliferative activity against human OVCAR-3 cells assessed as reduction in cell viability at 1 to 5 uM after 72 hrs by MTS assay; assay type: functional, cell-based; details: dose 1-5 µM
SK-OV-3 = experiment: Antiproliferative activity against human SK-OV-3 cells assessed as reduction in cell viability at 1 to 5 uM after 72 hrs by MTS assay; assay type: functional, cell-based; details: dose 1-5 µM
MCF7 [6] = experiment: Antiproliferative activity against human MCF7 cells assessed as reduction in cell viability after 72 hrs by MTS assay; assay type: functional, cell-based; details: MCF7, 72 h
[7] = Stability in human liver s9 fraction assessed as parent compound remaining at 10 uM after 1 hr by LC-MS analysis; assay type: ADME, subcellular; details: read-out: Stabilty
T47D [8] = experiment: Antiproliferative activity against human T47D cells assessed as reduction in cell viability after 72 hrs by MTS assay; assay type: functional, cell-based
PANC-1 [9] = experiment: Antiproliferative activity against human PANC-1 cells assessed as reduction in cell viability at 1 to 5 uM after 72 hrs by MTS assay; assay type: functional, cell-based; details: dose 1-5 µM
LNCaP = experiment: Antiproliferative activity against human LNCaP cells assessed as reduction in cell viability after 72 hrs by MTS assay; assay type: functional, cell-based
Caov-3 cell line = experiment: Antiproliferative activity against human Caov-3 cells assessed as reduction in cell viability at 1 to 5 uM after 72 hrs by MTS assay; assay type: functional, cell-based; details: dose 1-5 µM
BXPC-3 = experiment: Antiproliferative activity against human BXPC-3 cells assessed as reduction in cell viability at 1 to 5 uM after 72 hrs by MTS assay; assay type: functional, cell-based; details: dose 1-5 µM
OVCAR-3 [10] = experiment: Antiproliferative activity against human OVCAR-3 cells assessed as reduction in cell viability after 72 hrs by MTS assay; assay type: functional, cell-based; details: OVCAR-3, 72 h
T47D [11] = experiment: Antiproliferative activity against human T47D cells assessed as reduction in cell viability at 1 to 5 uM after 72 hrs by MTS assay; assay type: functional, cell-based; details: dose 1-5 µM
MCF7 [12] = experiment: Antiproliferative activity against human MCF7 cells assessed as reduction in cell viability at 1 to 5 uM after 72 hrs by MTS assay; assay type: functional, cell-based; details: dose 1-5 µM
PC-3 = experiment: Antiproliferative activity against human PC-3 cells assessed as reduction in cell viability after 72 hrs by MTS assay; assay type: functional, cell-based; details: PC-3, 72 h

SMILES: C#C[C@]1(O)CC[C@H]2[C@@H]3CC[C@H]4C[C@H](O)[C@@H](N5CCN(C(=O)[C@@H]6CCCN6C(=O)c6ccc7ccccc7n6)CC5)C[C@]4(C)[C@H]3CC[C@@]21C
- solubility at 24 h, 300 µM [1]: 9 µg/mL (≈ 13.8 µM)

SMILES: C#C[C@]1(O)CC[C@H]2[C@@H]3CCc4cc(OC)c(N5CCN(C(=O)[C@@H]6CCCN6C(=O)c6ccc7ccccc7n6)CC5)cc4[C@H]3CC[C@@]21C
- Activity (Hs 766): Active
- IC50 (PANC-1 [2]): 3.9 µM
- IC50 (LAPC4 [3]): 0.6 µM
- Activity (LAPC4 [4]): Active
- Activity (OVCAR-3 [5]): Active
- Activity (SK-OV-3): Active
- IC50 (MCF7 [6]): 2.6 µM
- remaining at 1 h, 10 µM [7]: 35%
- solubility at 24 h, 300 µM [1]: 2 µg/mL (≈ 3.09 µM)
- IC50 (T47D [8]): 0.5 µM
- Activity (PANC-1 [9]): Active
- IC50 (LNCaP): 1.2 µM
- Activity (Caov-3 cell line): Active
- Activity (BXPC-3): Active
- IC50 (OVCAR-3 [10]): 5 µM
- Activity (T47D [11]): Active
- Activity (MCF7 [12]): Active
- IC50 (PC-3): 1.6 µM

SMILES: C#C[C@]1(O)CC[C@H]2[C@@H]3CCc4cc(OC)c(CN5CCN(C(=O)[C@@H]6CCCN6C(=O)c6ccc7ccccc7n6)CC5)cc4[C@H]3CC[C@@]21C
- Activity (Hs 766): Active
- IC50 (PANC-1 [2]): 2.6 µM
- IC50 (LAPC4 [3]): 0.7 µM
- Activity (LAPC4 [4]): Active
- Activity (OVCAR-3 [5]): Active
- Activity (SK-OV-3): Active
- IC50 (MCF7 [6]): 2.3 µM
- remaining at 1 h, 10 µM [7]: 76%
- IC50 (T47D [8]): 0.4 µM
- Activity (PANC-1 [9]): Active
- IC50 (LNCaP): 1.3 µM
- Activity (Caov-3 cell line): Active
- Activity (BXPC-3): Active
- IC50 (OVCAR-3 [10]): 5 µM
- Activity (T47D [11]): Active
- Activity (MCF7 [12]): Active
- IC50 (PC-3): 1.7 µM

SMILES: C#C[C@]1(O)CC[C@H]2[C@@H]3CCc4cc(C(C)=O)c(N5CCN(C(=O)[C@@H]6CCCN6C(=O)c6ccc7ccccc7n6)CC5)cc4[C@H]3CC[C@@]21C
- Activity (Hs 766): inactive
- Activity (LAPC4 [4]): inactive
- Activity (OVCAR-3 [5]): inactive
- Activity (SK-OV-3): inactive
- remaining at 1 h, 10 µM [7]: 52%
- Activity (PANC-1 [9]): inactive
- Activity (Caov-3 cell line): inactive
- Activity (BXPC-3): inactive
- Activity (T47D [11]): inactive
- Activity (MCF7 [12]): inactive

SMILES: C#C[C@]1(O)CC[C@H]2[C@@H]3CCc4cc(OC)c(C(=O)N5CCN(C(=O)[C@@H]6CCCN6C(=O)c6ccc7ccccc7n6)CC5)cc4[C@H]3CC[C@@]21C
- Activity (Hs 766): Active
- IC50 (PANC-1 [2]): 3.5 µM
- IC50 (LAPC4 [3]): 0.5 µM
- Activity (LAPC4 [4]): Active
- Activity (OVCAR-3 [5]): Active
- Activity (SK-OV-3): Active
- IC50 (MCF7 [6]): 2.2 µM
- remaining at 1 h, 10 µM [7]: 52%
- IC50 (T47D [8]): 0.3 µM
- Activity (PANC-1 [9]): Active
- IC50 (LNCaP): 0.8 µM
- Activity (Caov-3 cell line): Active
- Activity (BXPC-3): Active
- IC50 (OVCAR-3 [10]): 5.2 µM
- Activity (T47D [11]): Active
- Activity (MCF7 [12]): Active
- IC50 (PC-3): 1.7 µM

SMILES: C#Cc1cc2c(cc1N1CCN(C(=O)[C@@H]3CCCN3C(=O)c3ccc4ccccc4n3)CC1)[C@H]1CC[C@@]3(C)[C@@H](CC[C@@]3(O)C#C)[C@@H]1CC2
- remaining at 1 h, 10 µM [7]: 52%

SMILES: CC(=O)O[C@H]1C(=O)[C@@]2(C)[C@H]([C@H](OC(=O)c3ccccc3)[C@]3(O)C[C@H](OC(=O)[C@H](O)[C@@H](NC(=O)c4ccccc4)c4ccccc4)C(C)=C1C3(C)C)[C@]1(OC(C)=O)CO[C@@H]1C[C@@H]2O
- Activity (T47D [11]): Active

SMILES: CCc1c2c(nc3ccc(OC(=O)N4CCC(N5CCCCC5)CC4)cc13)-c1cc3c(c(=O)n1C2)COC(=O)[C@]3(O)CC
- Activity (T47D [11]): Active

SMILES: Nc1ccn([C@@H]2O[C@H](CO)[C@@H](O)C2(F)F)c(=O)n1
- Activity (T47D [11]): Active
